Experimental data taken from ChEMBL document CHEMBL3243975 (J Med Chem, 1978).

Columns and labels:
[1] = species on record: Sus scrofa; assay: Binding affinity to pig ileum opioid receptor; assay type: tissue-based
[2] = species on record: Sus scrofa; assay: Agonist activity at pig ileum opioid receptor; assay type: tissue-based
[3] = species on record: Rattus norvegicus; assay: Narcotic agonist activity in rat by writhing test; assay type: functional
[4] = species on record: Mus musculus; assay: Narcotic agonist activity in mouse by writhing test; assay type: functional
[5] = test system: Rattus norvegicus; assay: Narcotic antagonist activity in sc dosed rat assessed as inhibition of oxymorphone-induced straub tail effect; assay type: functional
[6] = test system: Mus musculus; assay: Narcotic antagonist activity in sc dosed mouse assessed as inhibition of oxymorphone-induced nacrosis; assay type: functional
[7] = species on record: Rattus norvegicus; assay: Narcotic agonist activity in rat by hot plate test; assay type: functional

| Compound | Ke [1] | ID50 [2] | ED50 [3] | ED50 [4] | ED50 [5] | ED50 [6] | ED50 [7] |
| --- | --- | --- | --- | --- | --- | --- | --- |
| O=C1CC[C@@]2(O)[C@H]3Cc4ccc(O)c5c4[C@@]2(CCN3CC2CC2)[C@H]1O5 [NALTREXONE] | 0.38 nM | > 850 nM | 0.14 mg/kg | > 100 mg/kg | 0.023 mg/kg | 0.047 mg/kg |  |
| O=C1CC[C@@]2(O)[C@H]3Cc4ccc(O)c5c4[C@@]2(CCN3CC2CCC2)[C@H]1O5 | 3 nM | 60 nM | 0.06 mg/kg | 0.39 mg/kg | 0.19 mg/kg | 0.57 mg/kg |  |
| CN1CC[C@]23c4c5ccc(O)c4O[C@H]2[C@@H](O)C=C[C@H]3[C@H]1C5 [MORPHINE] |  |  | 0.26 mg/kg | 0.8 mg/kg |  |  |  |
| C=CCN1CC[C@]23c4c5ccc(O)c4O[C@H]2C(=O)CC[C@@]3(O)[C@H]1C5 [NALOXONE] |  |  | > 100 mg/kg | > 100 mg/kg | 0.051 mg/kg | 0.14 mg/kg |  |
| C=CCN1CC[C@]23c4c5ccc(O)c4O[C@H]2[C@@H](O)C=C[C@H]3[C@H]1C5 [NALORPHINE] |  | 24.3 nM | 1 mg/kg |  | 0.9 mg/kg | 1.45 mg/kg |  |
| O=C1CC[C@@]2(O)[C@H]3Cc4ccc(O)c5c4[C@@]2(CCN3CCc2ccccc2)[C@H]1O5 |  |  |  |  |  |  | 0.014 mg/kg |
| CC(C)=CCN1CC[C@]23c4c5ccc(O)c4O[C@H]2C(=O)CC[C@@]3(O)[C@H]1C5 [NALMEXONE] | 43 nM | 400 nM | 0.74 mg/kg | 2 mg/kg | 1.4 mg/kg | 5.6 mg/kg | 10.7 mg/kg |
| CN1CC[C@]23c4c5ccc(O)c4O[C@H]2C(=O)CC[C@@]3(O)[C@H]1C5 [OXYMORPHONE] | 11.2 nM | 12.1 nM | 0.02 mg/kg | 0.046 mg/kg |  |  | 0.17 mg/kg |
